# Where a SMILES comes first, the peptide text is derived from it. The star is where a group is joined. Cbz = O=C(OCc1ccccc1)*; CH2F = FC*
# Experiments:
# [1] = target: T1, RIP-1 (Rattus norvegicus, UniProt D3ZYL0); assay: RIP-1 phosphorylation after retinal detachment (RIP-1 immunoprecipitation, anti-phosphoserine Western blot); type: in vivo; details: two days after retinal detachment; subretinal Z-VAD 300 μM and/or Nec-1 400 μM at detachment
# T1 construct: RIP-1 was immunoprecipitated from lysates of untreated retina and of retina treated with either vehicle, Nec-1, Z-VAD, or Nec-1+Z-VAD; from tissue; host or cells: retina (retinal lysates) of animals with experimental retinal detachment
# T1 sequence (D3ZYL0 1-658): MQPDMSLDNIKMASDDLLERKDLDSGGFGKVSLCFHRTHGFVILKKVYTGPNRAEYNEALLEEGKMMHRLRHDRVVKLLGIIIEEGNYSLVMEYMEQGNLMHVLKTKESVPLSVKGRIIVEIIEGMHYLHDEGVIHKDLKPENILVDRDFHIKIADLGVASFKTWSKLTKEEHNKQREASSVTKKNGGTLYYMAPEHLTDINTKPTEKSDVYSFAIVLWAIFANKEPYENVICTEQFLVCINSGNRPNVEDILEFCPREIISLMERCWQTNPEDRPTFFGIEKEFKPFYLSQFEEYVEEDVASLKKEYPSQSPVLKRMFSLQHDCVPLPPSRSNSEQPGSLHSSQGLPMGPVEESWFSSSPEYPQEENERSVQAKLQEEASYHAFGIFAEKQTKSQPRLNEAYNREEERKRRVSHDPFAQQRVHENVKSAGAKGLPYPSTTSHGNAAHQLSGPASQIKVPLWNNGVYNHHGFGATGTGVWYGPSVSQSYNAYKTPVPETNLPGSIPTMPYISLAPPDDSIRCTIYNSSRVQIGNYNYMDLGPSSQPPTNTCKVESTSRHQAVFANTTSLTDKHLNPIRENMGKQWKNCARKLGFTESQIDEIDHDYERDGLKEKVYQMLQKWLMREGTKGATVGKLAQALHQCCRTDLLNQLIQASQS
# Method: Equal amount of retinal lysates (1 mg) were incubated with 1 μg anti-RIP-1 antibody (BD Biosciences) and 20 μl of Protein A/G Agarose beads (Thermo Scientific, Rockford, Ill.) at 4° C. overnight. Beads were washed 5 times with lysis buffer and TBS, and the immunopellets were then subjected to Western blotting.
# RIP-1 is phosphorylated at several serine residues in its kinase domain during programmed necrosis and Nec-1 inhibits this phosphorylation (Degterev (2008) supra; Cho Y et al. (2009) Cell 137:1100-1111). To investigate the role of RIP-1 kinase in retinal detachment-induced photoreceptor death, the phosphorylation status of RIP-1 was first assessed by immunoprecipitating RIP-1 from the retina (FIG. 3A) and then blotting with an anti-phosphoserine antibody. RIP-1 was immunoprecipitated from retinal lysates. One mg of retinal lysates were incubated with anti-RIP-1 antibody and Protein A/G agarose beads. Extracts before (Pre) and after (Post) immunoprecipitation and the immunopellets (IP) were run on a 4-12% SDS-PAGE and blotted with anti-RIP-1 antibody. […]
# To determine the effect of Nec-1 and a pan-caspase inhibitor on the phosphorylation of RIP-1, Z-VAD (300 μM) and/or a Nec-1 compound of Formula I-C (400 μM) were injected subretinally in the animal at the time of retinal detachment induction. […] Phosphorylation of RIP-1 was then assessed by Western blot analysis. […]
# [2] = test system: photoreceptors; assay: TEM quantification of apoptotic and necrotic photoreceptor death after retinal detachment; type: in vivo; details: day three after retinal detachment, ONL
# Method: The morphology of photoreceptors after retinal detachment was examined by transmission electron microscopy (TEM) and propidium iodide (PI) staining and the effect of treatment with Z-VAD and/or a Nec-1 compound of Formula I-C was analyzed.
# TEM was performed as previously described (Hisatomi T et al. (2008). J. CLIN. INVEST. 118:2025-2038). […] Over 200 photoreceptors each eye were photographed and subjected to quantification of cell death modes in a masked fashion. Photoreceptors showing cellular shrinkage and nuclear condensation were defined as apoptotic cells, while photoreceptors associated with cellular and organelle swelling and discontinuities in nuclear and plasma membrane were defined as necrotic cells. The presence of electron-dense granular materials were reported to occur subsequent to both apoptotic and necrotic cell death and cells with these findings were labeled simply as end-stage cell death/unclassified (Hisatomi T et al. (2003) AM. J. PATHOL. 162:1869-1879; Erickson P A et al. (1983) INVEST. OPHTHALMOL. VIS. SCI. 24:927-942).
# On day three after retinal detachment, photoreceptor death caused by apoptosis was almost twice that caused by necrosis in vehicle-treated retina (% apoptotic cells: 21.7±1.3%, necrotic cells: 13.3±1.0%, unclassified: 4.4±1.4%; FIGS. 7A and 7E).
# [3] = test system: photoreceptors; assay: TUNEL-positive cells after retinal detachment in RIP-3−/− mice; type: in vivo; details: three days after retinal detachment
# Method: The role of RIP-3 in RIP-mediated programmed necrosis in photoreceptor loss after retinal detachment was investigated in RIP-3 knockout (RIP-3−/−) mice. TUNEL assays were used to measure the amount of apoptotic and necrotic cell death (Grasl-Kraupp et al., HEPTALOGY (1995) 21(5):1465-8). TUNEL and quantification of TUNEL positive cells in ONL were performed as described above by using the ApopTag Fluorescein In Situ Apoptosis Detection Kit (Millipore, Billerica, Mass.).
# [4] = test system: RIP-3−/− RPE cells; assay: Viability of RIP-3−/− RPE cells treated with poly I:C (Cell Counting Kit-8); type: cell-based, mice
# Method: As described in Example 11, primary RPE cells were extracted from the retina of mice and cultured in the presence of 5 μg/ml of poly I:C for 48 hours or with PBS. Cell viability was measured using Cell Counting Kit-8 (Dojindo Laboratories, Kumamoto, Japan). This assay is based on the cleavage of 2-(2-methoxy-4-nitrophenyl)-3-(4-nitrophenyl)-5-(2,4-disulfophenyl)-2H-tetrazolium, monosodium salt (WST-8) by the mitochondrial dehydrogenase enzyme to produce a formazan dye. After incubation with WST-8 for two hours at 37° C., absorbance was measured at 450 nm to determine cell viability.
# Without poly I:C treatment, the viability of RPE cells was similar in WT and RIP-3−/− cells.
structure (smiles),measurement,setting,value
"COC(=O)CC(NC(=O)C(C)NC(=O)C(NC(=O)OCc1ccccc1)C(C)C)C(=O)CF (stereo not drawn) [Z-VAD, Benzyloxycarbonyl-Val-Ala-Asp(OMe)-fluoromethylketone] (Cbz-Val-Ala-Asp(OMe)-CH2F; configuration not given here)",RIP-1 phosphorylation,[1],elevated
same,% apoptotic cells (TEM),[2],11.4±1.2%
same,% necrotic cells (TEM),[2],21.9±2.3%
same,"% unclassified (end-stage cell death, TEM)",[2],5.6±1.4%
same,number of TUNEL-positive cells,[3],407.7±188.9 cells/mm^2
same,viability of RPE cells,[4],protected from cell death

# Source: US10639345B2, “Compositions for preserving photoreceptor cells, retinal pigment epithelial cells, or visual function” (Massachusetts Eye and Ear Infirmary, priority 2010, dated 2020)
